Data published in ChEMBL document CHEMBL4190378, “Synthesis and evaluation of new 2-chloro-4-aminopyrimidine and 2,6-dimethyl-4-aminopyrimidine derivatives as tubulin polymerization inhibitors” (Bioorg Med Chem Lett, 2018).
The source made the active and inactive calls. The rule behind the calls is not given here.

How the values were obtained:
HeLa [1] = assay: Antiproliferative activity against human HeLa cells incubated for 48 hrs by MTT assay; format: functional, cell-based
HCT-116 = assay: Antiproliferative activity against human HCT116 cells incubated for 48 hrs by MTT assay; format: functional, cell-based; conditions: HCT-116, 48 h
HepG2 = assay: Antiproliferative activity against human HepG2 cells incubated for 48 hrs by MTT assay; format: functional, cell-based; conditions: HepG2, 48 h
MDA-MB-231 = assay: Antiproliferative activity against human MDA-MB-231 cells incubated for 48 hrs by MTT assay; format: functional, cell-based; conditions: MDA-MB-231, 48 h
HeLa [2] = assay: Induction of cell cycle arrest in human HeLa cells assessed as tetraploid peaks level at 50 nM incubated for 24 hrs by propidium iodide staining based flow cytometry; format: functional
HeLa [3] = assay: Induction of cell cycle arrest in human HeLa cells assessed as accumulation at G2/M phase at 100 nM incubated for 24 hrs by propidium iodide staining based flow cytometry; format: functional
HeLa [4] = assay: Induction of cell cycle arrest in human HeLa cells assessed as accumulation at G2/M phase at 500 nM incubated for 24 hrs by propidium iodide staining based flow cytometry; format: functional
HeLa [5] = assay: Induction of cell cycle arrest in human HeLa cells assessed as tetraploid peaks level at 50 nM incubated for 48 hrs by propidium iodide staining based flow cytometry; format: functional
HeLa [6] = assay: Induction of cell cycle arrest in human HeLa cells assessed as induction of disappearance of G2/M phase at 100 nM incubated for 48 hrs by propidium iodide staining based flow cytometry; format: functional
HeLa [7] = assay: Induction of cell cycle arrest in human HeLa cells assessed as accumulation at subG1 phase at 500 nM incubated for 24 hrs by propidium iodide staining based flow cytometry; format: functional
HeLa [8] = assay: Inhibition of tubulin polymerization in human HeLa cells assessed as morphological changes by measuring microtubule organisation derangement at 0.05 uM incubated for 24 hrs by laser scanning confocal microscopy; format: functional, cell-based
HeLa [9] = assay: Inhibition of tubulin polymerization in human HeLa cells assessed as morphological changes by measuring narrowing of nucleus at 0.5 uM incubated for 24 hrs by laser scanning confocal microscopy; format: functional, cell-based
HeLa [10] = assay: Inhibition of tubulin polymerization in human HeLa cells assessed as morphological changes by measuring spindle microtubule dis-organisation at 0.5 uM incubated for 24 hrs by laser scanning confocal microscopy; format: functional, cell-based
HeLa [11] = assay: Induction of apoptosis in human HeLa cells assessed as viable cells level at 50 nM incubated for 48 hrs by Annexin-V/FITC and propidium iodide staining based flow cytometry (reference value: 99.72%); format: functional
HeLa [12] = assay: Induction of apoptosis in human HeLa cells assessed as early apoptotic cells level at 50 nM incubated for 48 hrs by Annexin-V/FITC and propidium iodide staining based flow cytometry (reference value: 0.16%); format: functional
HeLa [13] = assay: Induction of apoptosis in human HeLa cells assessed as late apoptotic cells level at 50 nM incubated for 48 hrs by Annexin-V/FITC and propidium iodide staining based flow cytometry (reference value: 0.02%); format: functional
HeLa [14] = assay: Induction of apoptosis in human HeLa cells assessed as necrotic cells level at 50 nM incubated for 48 hrs by Annexin-V/FITC and propidium iodide staining based flow cytometry (reference value: 0.03%); format: functional
HeLa [15] = assay: Induction of apoptosis in human HeLa cells assessed as viable cells level at 100 nM incubated for 48 hrs by Annexin-V/FITC and propidium iodide staining based flow cytometry (reference value: 99.72%); format: functional
HeLa [16] = assay: Induction of apoptosis in human HeLa cells assessed as necrotic cells level at 100 nM incubated for 48 hrs by Annexin-V/FITC and propidium iodide staining based flow cytometry (reference value: 0.03%); format: functional
HeLa [17] = assay: Induction of apoptosis in human HeLa cells assessed as viable cells level at 500 nM incubated for 48 hrs by Annexin-V/FITC and propidium iodide staining based flow cytometry (reference value: 99.72%); format: functional
HeLa [18] = assay: Induction of apoptosis in human HeLa cells assessed as late apoptotic cells level at 500 nM incubated for 48 hrs by Annexin-V/FITC and propidium iodide staining based flow cytometry (reference value: 0.02%); format: functional
HeLa [19] = assay: Induction of apoptosis in human HeLa cells assessed as viable cells level at 50 nM incubated for 72 hrs by Annexin-V/FITC and propidium iodide staining based flow cytometry (reference value: 99.72%); format: functional
HeLa [20] = assay: Induction of apoptosis in human HeLa cells assessed as late apoptotic cells level at 50 nM incubated for 72 hrs by Annexin-V/FITC and propidium iodide staining based flow cytometry (reference value: 0.02%); format: functional
HeLa [21] = assay: Induction of apoptosis in human HeLa cells assessed as necrotic cells level at 50 nM incubated for 72 hrs by Annexin-V/FITC and propidium iodide staining based flow cytometry (reference value: 0.03%); format: functional
HeLa [22] = assay: Induction of apoptosis in human HeLa cells assessed as viable cells level at 100 nM incubated for 72 hrs by Annexin-V/FITC and propidium iodide staining based flow cytometry (reference value: 99.72%); format: functional
HeLa [23] = assay: Induction of apoptosis in human HeLa cells assessed as early apoptotic cells level at 100 nM incubated for 72 hrs by Annexin-V/FITC and propidium iodide staining based flow cytometry (reference value: 0.16%); format: functional
HeLa [24] = assay: Induction of apoptosis in human HeLa cells assessed as late apoptotic cells level at 100 nM incubated for 72 hrs by Annexin-V/FITC and propidium iodide staining based flow cytometry (reference value: 0.02%); format: functional
HeLa [25] = assay: Induction of apoptosis in human HeLa cells assessed as early apoptotic cells level at 500 nM incubated for 72 hrs by Annexin-V/FITC and propidium iodide staining based flow cytometry (reference value: 0.16%); format: functional
HeLa [26] = assay: Induction of apoptosis in human HeLa cells assessed as late apoptotic cells level at 500 nM incubated for 72 hrs by Annexin-V/FITC and propidium iodide staining based flow cytometry (reference value: 0.02%); format: functional
HeLa [27] = assay: Induction of apoptosis in human HeLa cells assessed as necrotic cells level at 500 nM incubated for 72 hrs by Annexin-V/FITC and propidium iodide staining based flow cytometry (reference value: 0.03%); format: functional
HeLa [28] = assay: Induction of mitochondrial transmembrane potential loss in human HeLa cells assessed as JC1 dye aggregates level at 100 nM incubated for 24 hrs by JC1 staining based flow cytometry (reference value: 95.85%); format: functional
HeLa [29] = assay: Induction of mitochondrial transmembrane potential loss in human HeLa cells assessed as JC1 dye aggregates level at 500 nM incubated for 24 hrs by JC1 staining based flow cytometry (reference value: 95.85%); format: functional
HeLa [30] = assay: Induction of mitochondrial transmembrane potential loss in human HeLa cells assessed as JC1 dye monomers level at 500 nM incubated for 24 hrs by JC1 staining based flow cytometry (reference value: 4.12%); format: functional
HeLa [31] = assay: Induction of mitochondrial transmembrane potential loss in human HeLa cells at 50 nM incubated for 24 hrs by JC1 staining based fluorescence microscopy; format: functional, cell-based
HeLa [32] = assay: Induction of mitochondrial transmembrane potential loss in human HeLa cells at 100 nM incubated for 24 hrs by JC1 staining based fluorescence microscopy; format: functional, cell-based

COc1ccc(N(C)c2cc(C)nc(C)n2)cc1O
IC50 (HeLa [1]): 93 nM | IC50 (HCT-116): 126 nM | IC50 (HepG2): 112 nM | IC50 (MDA-MB-231): 1100 nM | Activity (HeLa [2]): 28.3% | Activity (HeLa [3]): 39.6% | Activity (HeLa [4]): 55.6% | Activity (HeLa [5]): 38.7% | Activity (HeLa [6]): Active | Activity (HeLa [7]): Active | inhibition (HeLa [8]): Active | inhibition (HeLa [9]): Active | inhibition (HeLa [10]): Active | Activity (HeLa [11]): 89.56% | Activity (HeLa [12]): 10.44% | Activity (HeLa [13]): 0% | Activity (HeLa [14]): 0.01% | Activity (HeLa [15]): 76.71% | Activity (HeLa [16]): 0.07% | Activity (HeLa [17]): 29.81% | Activity (HeLa [18]): 0.09% | Activity (HeLa [19]): 82.18% | Activity (HeLa [20]): 7.44% | Activity (HeLa [21]): 0.6% | Activity (HeLa [22]): 65.2% | Activity (HeLa [23]): 21.09% | Activity (HeLa [24]): 11.63% | Activity (HeLa [25]): 66.08% | Activity (HeLa [26]): 18.61% | Activity (HeLa [27]): 3.54% | Activity (HeLa [28]): 70.71% | Activity (HeLa [29]): 51.28% | Activity (HeLa [30]): 48.26% | Activity (HeLa [31]): Active | Activity (HeLa [32]): Active
